Source: publication PMC4051630, “A Comparison of Protein Kinases Inhibitor Screening Methods Using Both Enzymatic Activity and Binding Affinity Determination” (PLoS ONE, 2014)
Like-named read-outs stand apart in the source and are kept apart here.

Columns and labels:
Assay in all cases: Differential Scanning Fluorimetry (DSF) Tm shift
Type in all cases: binding
[1] = molecular target: T1, CDK2 + Cyclin A (Homo sapiens, UniProt P24941)
T1 construct: CDK2 (P24941); 1–299; His-tag; made in house; host or cells: Escherichia coli

[2] = molecular target: T2, STK3 Catalytic domain+SARAH (Homo sapiens, UniProt Q13188); conditions: 2 µM protein, 10 µM inhibitor, average of 3 experiments, each in duplicate
T2 construct: for 8, we also made a longer version containing one or more additional domains; His-tag; made in house; host or cells: Escherichia coli
T2 sequence (Q13188 1-491): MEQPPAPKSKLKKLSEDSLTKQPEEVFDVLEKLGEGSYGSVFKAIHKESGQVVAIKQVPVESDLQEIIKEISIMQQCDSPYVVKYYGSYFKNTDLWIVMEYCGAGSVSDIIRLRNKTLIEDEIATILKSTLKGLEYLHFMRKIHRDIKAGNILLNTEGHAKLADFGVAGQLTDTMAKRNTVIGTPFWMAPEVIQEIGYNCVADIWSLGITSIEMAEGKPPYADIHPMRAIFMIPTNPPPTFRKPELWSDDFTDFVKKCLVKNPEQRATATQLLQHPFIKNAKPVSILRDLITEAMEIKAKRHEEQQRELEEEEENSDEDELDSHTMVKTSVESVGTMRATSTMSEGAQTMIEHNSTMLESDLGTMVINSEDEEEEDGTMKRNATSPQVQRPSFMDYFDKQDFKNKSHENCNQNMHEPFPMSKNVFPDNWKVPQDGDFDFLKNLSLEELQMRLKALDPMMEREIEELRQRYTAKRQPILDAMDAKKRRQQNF

[3] = molecular target: T3, FES Catalytic Domain+SH2 (Homo sapiens, UniProt P07332); conditions: 2 µM protein, 10 µM inhibitor, average of 3 experiments, each in duplicate
T3 construct: for 8, we also made a longer version containing one or more additional domains; His-tag; made in house; host or cells: Escherichia coli
T3 sequence (P07332 448-822 limits assumed): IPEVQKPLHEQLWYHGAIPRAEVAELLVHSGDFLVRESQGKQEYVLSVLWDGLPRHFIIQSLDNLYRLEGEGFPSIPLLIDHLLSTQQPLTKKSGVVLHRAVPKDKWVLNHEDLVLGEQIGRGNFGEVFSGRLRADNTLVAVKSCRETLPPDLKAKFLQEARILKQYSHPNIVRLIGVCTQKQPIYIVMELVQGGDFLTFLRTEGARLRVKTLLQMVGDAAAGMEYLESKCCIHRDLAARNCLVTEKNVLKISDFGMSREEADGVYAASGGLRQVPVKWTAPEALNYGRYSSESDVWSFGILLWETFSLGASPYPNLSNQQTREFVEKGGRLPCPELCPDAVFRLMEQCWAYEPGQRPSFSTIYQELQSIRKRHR

[4] = molecular target: T4, STK3 Catalytic Domain (Homo sapiens, UniProt Q13188); conditions: 2 µM protein, 10 µM inhibitor, average of 3 experiments, each in duplicate
T4 construct: For all of them, we expressed and purified the catalytic domain separately; His-tag; made in house; host or cells: Escherichia coli
T4 sequence (Q13188 27-278 limits assumed): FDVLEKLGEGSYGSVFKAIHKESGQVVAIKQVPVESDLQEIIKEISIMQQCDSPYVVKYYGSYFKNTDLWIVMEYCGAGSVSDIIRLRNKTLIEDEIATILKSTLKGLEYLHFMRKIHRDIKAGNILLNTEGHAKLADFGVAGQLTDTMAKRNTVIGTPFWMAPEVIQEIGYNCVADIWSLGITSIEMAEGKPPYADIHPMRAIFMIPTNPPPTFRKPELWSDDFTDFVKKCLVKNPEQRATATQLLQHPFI

[5] = molecular target: SRC Catalytic Domain (Homo sapiens, UniProt P12931); design: For all of them, we expressed and purified the catalytic domain separately; His-tag; made in house; host or cells: Escherichia coli; conditions: 2 µM protein, 10 µM inhibitor, average of 3 experiments, each in duplicate
Chain of SRC Catalytic Domain (P12931 270-523 limits assumed): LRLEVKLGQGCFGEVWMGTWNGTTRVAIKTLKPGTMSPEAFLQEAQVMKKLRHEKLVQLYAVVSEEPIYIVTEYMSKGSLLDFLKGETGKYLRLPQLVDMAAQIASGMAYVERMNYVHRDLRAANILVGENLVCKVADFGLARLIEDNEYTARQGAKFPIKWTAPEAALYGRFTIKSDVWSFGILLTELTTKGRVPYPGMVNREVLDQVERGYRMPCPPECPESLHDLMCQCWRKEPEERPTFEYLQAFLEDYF

[6] = molecular target: T5, PAK7 Catalytic Domain (Homo sapiens, UniProt Q9P286); conditions: 2 µM protein, 10 µM inhibitor, average of 3 experiments, each in duplicate
T5 construct: For all of them, we expressed and purified the catalytic domain separately; His-tag; made in house; host or cells: Escherichia coli
T5 sequence (Q9P286 449-700 limits assumed): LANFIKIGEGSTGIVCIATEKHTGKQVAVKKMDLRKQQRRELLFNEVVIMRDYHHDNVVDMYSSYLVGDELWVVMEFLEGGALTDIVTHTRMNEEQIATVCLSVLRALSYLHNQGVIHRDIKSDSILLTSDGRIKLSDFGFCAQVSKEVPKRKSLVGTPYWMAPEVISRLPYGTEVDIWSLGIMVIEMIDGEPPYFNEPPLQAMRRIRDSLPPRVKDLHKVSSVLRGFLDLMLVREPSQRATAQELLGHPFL

[7] = molecular target: SRC Catalytic Domain+SH2+SH3 (Homo sapiens, UniProt P12931); conditions: 2 µM protein, 10 µM inhibitor, average of 3 experiments, each in duplicate
Chain of SRC Catalytic Domain+SH2+SH3 (P12931 84-523 limits assumed): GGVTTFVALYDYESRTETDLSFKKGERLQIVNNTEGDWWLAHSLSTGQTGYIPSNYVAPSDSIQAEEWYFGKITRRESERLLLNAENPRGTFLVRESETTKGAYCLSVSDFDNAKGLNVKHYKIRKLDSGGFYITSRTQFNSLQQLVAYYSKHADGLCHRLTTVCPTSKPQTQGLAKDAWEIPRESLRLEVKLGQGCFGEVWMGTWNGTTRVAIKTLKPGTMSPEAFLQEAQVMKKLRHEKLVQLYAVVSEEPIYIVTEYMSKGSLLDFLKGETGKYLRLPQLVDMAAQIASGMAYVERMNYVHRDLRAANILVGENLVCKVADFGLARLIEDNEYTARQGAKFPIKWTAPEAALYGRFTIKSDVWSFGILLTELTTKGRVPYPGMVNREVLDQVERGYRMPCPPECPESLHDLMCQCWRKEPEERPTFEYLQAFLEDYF

[8] = molecular target: T6, PAK4 Catalytic Domain (Homo sapiens, UniProt O96013); conditions: 2 µM protein, 10 µM inhibitor, average of 3 experiments, each in duplicate
T6 construct: For all of them, we expressed and purified the catalytic domain separately; His-tag; made in house; host or cells: Escherichia coli
T6 sequence (O96013 321-572 limits assumed): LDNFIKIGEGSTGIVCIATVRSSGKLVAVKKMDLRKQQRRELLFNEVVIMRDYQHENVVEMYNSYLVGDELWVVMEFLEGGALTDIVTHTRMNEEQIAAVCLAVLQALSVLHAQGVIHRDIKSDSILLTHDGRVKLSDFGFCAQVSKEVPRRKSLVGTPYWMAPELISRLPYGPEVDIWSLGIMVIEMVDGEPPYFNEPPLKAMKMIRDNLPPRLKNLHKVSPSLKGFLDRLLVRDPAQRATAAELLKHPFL

[9] = molecular target: T7, CDK2 + Cyclin E (Homo sapiens, UniProt P24941)
T7 construct: CDK2 (P24941); 1–299; His-tag; made in house; host or cells: Escherichia coli

[10] = molecular target: T8, AKT3 Catalytic Domain (Homo sapiens, UniProt Q9Y243); conditions: 2 µM protein, 10 µM inhibitor, average of 3 experiments, each in duplicate
T8 construct: AKT3 (Q9Y243); CD; His-tag; made in house; host or cells: Escherichia coli
T8 sequence (Q9Y243 122-479): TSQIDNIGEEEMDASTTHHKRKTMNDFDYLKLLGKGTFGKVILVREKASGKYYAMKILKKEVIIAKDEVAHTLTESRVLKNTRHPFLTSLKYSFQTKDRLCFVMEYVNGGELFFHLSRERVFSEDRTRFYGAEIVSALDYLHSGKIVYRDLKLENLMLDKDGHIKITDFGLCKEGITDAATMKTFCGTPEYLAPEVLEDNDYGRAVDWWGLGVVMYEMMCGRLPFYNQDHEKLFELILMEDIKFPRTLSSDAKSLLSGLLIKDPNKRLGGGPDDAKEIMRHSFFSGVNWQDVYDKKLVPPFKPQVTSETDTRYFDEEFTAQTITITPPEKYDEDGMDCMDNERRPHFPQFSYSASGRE

[11] = molecular target: T9, FAK2 Catalytic Domain (Homo sapiens, UniProt Q14289); conditions: 2 µM protein, 10 µM inhibitor, average of 3 experiments, each in duplicate
T9 construct: For all of them, we expressed and purified the catalytic domain separately; His-tag; made in house; host or cells: Escherichia coli
T9 sequence (Q14289 425-683 limits assumed): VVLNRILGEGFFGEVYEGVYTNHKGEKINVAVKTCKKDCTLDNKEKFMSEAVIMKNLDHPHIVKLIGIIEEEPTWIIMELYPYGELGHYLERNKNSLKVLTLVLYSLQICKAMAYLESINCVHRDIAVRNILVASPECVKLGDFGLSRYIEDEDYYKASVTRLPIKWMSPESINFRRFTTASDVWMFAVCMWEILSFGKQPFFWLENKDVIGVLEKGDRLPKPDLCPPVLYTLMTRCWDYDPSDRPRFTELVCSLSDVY

[12] = molecular target: T10, PAK4 Catalytic Domain+PBD (Homo sapiens, UniProt O96013); conditions: 2 µM protein, 10 µM inhibitor, average of 3 experiments, each in duplicate
T10 construct: for 8, we also made a longer version containing one or more additional domains; His-tag; made in house; host or cells: Escherichia coli
T10 sequence (O96013 whole entry, the tested form may be a part): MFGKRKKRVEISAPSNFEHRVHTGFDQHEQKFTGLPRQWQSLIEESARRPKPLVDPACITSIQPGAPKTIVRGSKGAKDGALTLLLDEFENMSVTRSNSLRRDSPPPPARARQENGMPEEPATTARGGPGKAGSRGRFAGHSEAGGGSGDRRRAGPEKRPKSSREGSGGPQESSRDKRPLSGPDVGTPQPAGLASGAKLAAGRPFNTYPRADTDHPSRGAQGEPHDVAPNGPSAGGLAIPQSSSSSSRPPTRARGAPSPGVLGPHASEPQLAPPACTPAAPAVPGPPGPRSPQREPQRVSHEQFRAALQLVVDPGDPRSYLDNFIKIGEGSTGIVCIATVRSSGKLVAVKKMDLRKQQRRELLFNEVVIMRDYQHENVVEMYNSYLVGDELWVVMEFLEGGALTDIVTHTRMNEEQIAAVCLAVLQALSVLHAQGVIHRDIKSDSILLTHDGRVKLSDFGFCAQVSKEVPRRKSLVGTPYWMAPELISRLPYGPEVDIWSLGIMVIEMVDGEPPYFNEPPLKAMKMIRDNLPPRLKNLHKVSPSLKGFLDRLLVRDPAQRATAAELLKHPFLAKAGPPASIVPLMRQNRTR

[13] = molecular target: T11, CHK2 Catalytic Domain (Homo sapiens, UniProt O96017); conditions: 2 µM protein, 10 µM inhibitor, average of 3 experiments, each in duplicate
T11 construct: For all of them, we expressed and purified the catalytic domain separately; His-tag; made in house; host or cells: Escherichia coli
T11 sequence (O96017 220-486 limits assumed): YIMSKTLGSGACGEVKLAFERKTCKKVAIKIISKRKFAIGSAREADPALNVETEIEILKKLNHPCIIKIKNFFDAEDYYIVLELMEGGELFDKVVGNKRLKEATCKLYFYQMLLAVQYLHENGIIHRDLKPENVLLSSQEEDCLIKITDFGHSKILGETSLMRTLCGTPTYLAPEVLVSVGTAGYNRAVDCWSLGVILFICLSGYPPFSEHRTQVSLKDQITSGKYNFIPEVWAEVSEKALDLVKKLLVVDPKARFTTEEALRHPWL

[14] = molecular target: T12, DMPK Catalytic Domain (Homo sapiens, UniProt Q09013); conditions: 2 µM protein, 10 µM inhibitor, average of 3 experiments, each in duplicate
T12 construct: For all of them, we expressed and purified the catalytic domain separately; His-tag; made in house; host or cells: Escherichia coli
T12 sequence (Q09013 71-339 limits assumed): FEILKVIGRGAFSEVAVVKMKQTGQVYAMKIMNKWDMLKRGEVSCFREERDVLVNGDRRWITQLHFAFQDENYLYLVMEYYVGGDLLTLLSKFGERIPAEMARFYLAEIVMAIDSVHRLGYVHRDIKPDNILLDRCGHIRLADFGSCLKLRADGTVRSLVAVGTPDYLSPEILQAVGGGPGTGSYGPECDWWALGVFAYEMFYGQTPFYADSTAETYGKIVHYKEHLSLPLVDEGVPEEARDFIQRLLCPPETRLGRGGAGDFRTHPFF

[15] = molecular target: T13, FES Catalytic Domain (Homo sapiens, UniProt P07332); conditions: 2 µM protein, 10 µM inhibitor, average of 3 experiments, each in duplicate
T13 construct: For all of them, we expressed and purified the catalytic domain separately; His-tag; made in house; host or cells: Escherichia coli
T13 sequence (P07332 561-822 limits assumed): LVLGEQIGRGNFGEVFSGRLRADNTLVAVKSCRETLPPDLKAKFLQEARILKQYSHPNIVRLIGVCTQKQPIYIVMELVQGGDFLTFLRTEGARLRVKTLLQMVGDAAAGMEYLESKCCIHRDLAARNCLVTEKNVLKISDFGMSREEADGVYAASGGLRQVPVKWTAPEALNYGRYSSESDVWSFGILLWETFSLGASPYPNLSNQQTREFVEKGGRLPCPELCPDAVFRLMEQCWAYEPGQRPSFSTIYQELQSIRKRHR

[16] = CDK2 + Cyclin A, 2 µM protein, 10 µM inhibitor, average of 3 experiments, each in duplicate
[17] = CDK2 + Cyclin E, 2 µM protein, 10 µM inhibitor, average of 3 experiments, each in duplicate

NC(=O)Nc1cc(-c2ccccc2)sc1C(N)=O [IKK-2 Inhibitor XI]
Melting temperature (Tm) shift [1, 16]: 0.9 degrees Celcius
Melting temperature (Tm) shift [2]: 1.4 degrees Celcius
Melting temperature (Tm) shift [3]: 1.1 degrees Celcius
Melting temperature (Tm) shift [4]: 2.4 degrees Celcius
Melting temperature (Tm) shift [5]: 1.5 degrees Celcius
Melting temperature (Tm) shift [6]: 1.3 degrees Celcius
Melting temperature (Tm) shift [7]: 1.0 degrees Celcius
Melting temperature (Tm) shift [8]: 1.7 degrees Celcius
Melting temperature (Tm) shift [9, 17]: 0.7 degrees Celcius
Melting temperature (Tm) shift [10]: 0.0 degrees Celcius
Melting temperature (Tm) shift [11]: 1.5 degrees Celcius
Melting temperature (Tm) shift [12]: 2.9 degrees Celcius
Melting temperature (Tm) shift [13]: 5.8 degrees Celcius
Melting temperature (Tm) shift [14]: 1.6 degrees Celcius
Melting temperature (Tm) shift [15]: 2.1 degrees Celcius

O=C1Cc2c([nH]c3ccc(Br)cc23)-c2ccccc2N1 [Kenpaullone]
Melting temperature (Tm) shift [1, 16]: 0.4 degrees Celcius
Melting temperature (Tm) shift [2]: 1.5 degrees Celcius
Melting temperature (Tm) shift [3]: 0.0 degrees Celcius
Melting temperature (Tm) shift [4]: 0.7 degrees Celcius
Melting temperature (Tm) shift [5]: 0.4 degrees Celcius
Melting temperature (Tm) shift [6]: 0.7 degrees Celcius
Melting temperature (Tm) shift [7]: 0.2 degrees Celcius
Melting temperature (Tm) shift [8]: 1.4 degrees Celcius
Melting temperature (Tm) shift [9, 17]: 0.3 degrees Celcius
Melting temperature (Tm) shift [10]: 0.0 degrees Celcius
Melting temperature (Tm) shift [11]: 0.3 degrees Celcius
Melting temperature (Tm) shift [12]: 3.6 degrees Celcius
Melting temperature (Tm) shift [13]: 3.4 degrees Celcius
Melting temperature (Tm) shift [14]: 1.9 degrees Celcius
Melting temperature (Tm) shift [15]: 0.4 degrees Celcius

Cc1[nH]c(/C=C2\C(=O)Nc3ccc(S(=O)(=O)N(C)c4cccc(Cl)c4)cc32)c(C)c1C(=O)N1CCN(C)CC1 [Met Kinase Inhibitor]
Melting temperature (Tm) shift [1]: 0.4
Melting temperature (Tm) shift [2]: 0.9 degrees Celcius
Melting temperature (Tm) shift [3]: 0.1 degrees Celcius
Melting temperature (Tm) shift [4]: 0.7 degrees Celcius
Melting temperature (Tm) shift [5]: 0.3 degrees Celcius
Melting temperature (Tm) shift [6]: 0.2 degrees Celcius
Melting temperature (Tm) shift [7]: 0.2 degrees Celcius
Melting temperature (Tm) shift [8]: 0.9 degrees Celcius
Melting temperature (Tm) shift [9]: 0.1
Melting temperature (Tm) shift [10]: 0.0 degrees Celcius
Melting temperature (Tm) shift [11]: 0.1 degrees Celcius
Melting temperature (Tm) shift [12]: 0.3 degrees Celcius
Melting temperature (Tm) shift [13]: 1.2 degrees Celcius
Melting temperature (Tm) shift [14]: 1.2 degrees Celcius
Melting temperature (Tm) shift [15]: 0.6 degrees Celcius

Cc1ccc([N+](=O)[O-])cc1S(=O)(=O)N(C)N=Cc1cnc2ccc(Br)cn12.Cl.O.O [PI 3-Kα Inhibitor VIII]
Melting temperature (Tm) shift [1, 16]: 4.2 degrees Celcius
Melting temperature (Tm) shift [2]: 4.2 degrees Celcius
Melting temperature (Tm) shift [3]: 1.4 degrees Celcius
Melting temperature (Tm) shift [4]: 2.7 degrees Celcius
Melting temperature (Tm) shift [5]: 0.7 degrees Celcius
Melting temperature (Tm) shift [6]: 1.8 degrees Celcius
Melting temperature (Tm) shift [7]: 0.9 degrees Celcius
Melting temperature (Tm) shift [8]: 3.0 degrees Celcius
Melting temperature (Tm) shift [9, 17]: 0.7 degrees Celcius
Melting temperature (Tm) shift [10]: 1.3 degrees Celcius
Melting temperature (Tm) shift [11]: 1.6 degrees Celcius
Melting temperature (Tm) shift [12]: 2.1 degrees Celcius
Melting temperature (Tm) shift [13]: 2.5 degrees Celcius
Melting temperature (Tm) shift [14]: 3.1 degrees Celcius
Melting temperature (Tm) shift [15]: 3.1 degrees Celcius

O=C1NC(=O)C(=Cc2cccc(C(F)(F)F)c2)S1 [PIM1/2 Kinase Inhibitor V]
Melting temperature (Tm) shift [1, 16]: 0.3 degrees Celcius
Melting temperature (Tm) shift [2]: 0.4 degrees Celcius
Melting temperature (Tm) shift [3]: 0.4 degrees Celcius
Melting temperature (Tm) shift [4]: 0.2 degrees Celcius
Melting temperature (Tm) shift [5]: 0.1 degrees Celcius
Melting temperature (Tm) shift [6]: 0.1 degrees Celcius
Melting temperature (Tm) shift [7]: 0.2 degrees Celcius
Melting temperature (Tm) shift [8]: 0.2 degrees Celcius
Melting temperature (Tm) shift [9, 17]: 0.2 degrees Celcius
Melting temperature (Tm) shift [10]: 0.1 degrees Celcius
Melting temperature (Tm) shift [11]: 0.2 degrees Celcius
Melting temperature (Tm) shift [12]: 0.4 degrees Celcius
Melting temperature (Tm) shift [13]: 0.5 degrees Celcius
Melting temperature (Tm) shift [14]: 0.1 degrees Celcius
Melting temperature (Tm) shift [15]: 0.5 degrees Celcius

O=C1Nc2ccc3ncsc3c2/C1=C/c1cnc[nH]1 [PKR Inhibitor]
Melting temperature (Tm) shift [1, 16]: 4.4 degrees Celcius
Melting temperature (Tm) shift [2]: 7.0 degrees Celcius
Melting temperature (Tm) shift [3]: 0.7 degrees Celcius
Melting temperature (Tm) shift [4]: 4.9 degrees Celcius
Melting temperature (Tm) shift [5]: 0.7 degrees Celcius
Melting temperature (Tm) shift [6]: 1.9 degrees Celcius
Melting temperature (Tm) shift [7]: 0.3 degrees Celcius
Melting temperature (Tm) shift [8]: 1.9 degrees Celcius
Melting temperature (Tm) shift [9, 17]: 4.3 degrees Celcius
Melting temperature (Tm) shift [10]: 0.3 degrees Celcius
Melting temperature (Tm) shift [11]: 1.1 degrees Celcius
Melting temperature (Tm) shift [12]: 1.8 degrees Celcius
Melting temperature (Tm) shift [13]: 4.0 degrees Celcius
Melting temperature (Tm) shift [14]: 0.8 degrees Celcius
Melting temperature (Tm) shift [15]: 3.2 degrees Celcius

Cl.Cl.NCCNc1ncc(C(N)=O)c(Nc2cccc(C(F)(F)F)c2)n1 [Syk Inhibitor II]
Melting temperature (Tm) shift [1, 16]: 0.5 degrees Celcius
Melting temperature (Tm) shift [2]: 1.3 degrees Celcius
Melting temperature (Tm) shift [3]: 1.3 degrees Celcius
Melting temperature (Tm) shift [4]: 1.6 degrees Celcius
Melting temperature (Tm) shift [5]: 0.1 degrees Celcius
Melting temperature (Tm) shift [6]: 5.1 degrees Celcius
Melting temperature (Tm) shift [7]: 0.4 degrees Celcius
Melting temperature (Tm) shift [8]: 4.7 degrees Celcius
Melting temperature (Tm) shift [9, 17]: 0.6 degrees Celcius
Melting temperature (Tm) shift [10]: 0.0 degrees Celcius
Melting temperature (Tm) shift [11]: 1.9 degrees Celcius
Melting temperature (Tm) shift [12]: 4.8 degrees Celcius
Melting temperature (Tm) shift [13]: 4.7 degrees Celcius
Melting temperature (Tm) shift [14]: 0.7 degrees Celcius
Melting temperature (Tm) shift [15]: 3.1 degrees Celcius
